These results are taken from patent US20240383856A1 (Zedira GmbH, priority 2021, published 2024).

By logD is commonly meant the decadic logarithm of the distribution of all forms, ionised or not, between an organic phase and buffer at a given pH. A lower logD goes with lower lipophilicity. The IC50 is the point on the concentration scale where inhibition reaches its midpoint. Broadly, the Papp is a coefficient for how fast a substance crosses the barrier.

Structures are written as SMILES.

Series [1] can be described thus: logD by shake flask method (octanol / PBS pH 7.4, HPLC). The series is classed as physicochemical. The conditions noted are these: octanol / PBS pH 7.4, shake flask. Put shortly:
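Shake-flask partition of compound between octanol and phosphate-buffered saline at pH 7.4, with each phase quantified by HPLC to give LogD.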

Series [2] has as its target T1, recombinant human transglutaminase 2 (Homo sapiens, UniProt P21980).
T1 construct: purchased Zedira T022
T1 sequence (P21980 1-687): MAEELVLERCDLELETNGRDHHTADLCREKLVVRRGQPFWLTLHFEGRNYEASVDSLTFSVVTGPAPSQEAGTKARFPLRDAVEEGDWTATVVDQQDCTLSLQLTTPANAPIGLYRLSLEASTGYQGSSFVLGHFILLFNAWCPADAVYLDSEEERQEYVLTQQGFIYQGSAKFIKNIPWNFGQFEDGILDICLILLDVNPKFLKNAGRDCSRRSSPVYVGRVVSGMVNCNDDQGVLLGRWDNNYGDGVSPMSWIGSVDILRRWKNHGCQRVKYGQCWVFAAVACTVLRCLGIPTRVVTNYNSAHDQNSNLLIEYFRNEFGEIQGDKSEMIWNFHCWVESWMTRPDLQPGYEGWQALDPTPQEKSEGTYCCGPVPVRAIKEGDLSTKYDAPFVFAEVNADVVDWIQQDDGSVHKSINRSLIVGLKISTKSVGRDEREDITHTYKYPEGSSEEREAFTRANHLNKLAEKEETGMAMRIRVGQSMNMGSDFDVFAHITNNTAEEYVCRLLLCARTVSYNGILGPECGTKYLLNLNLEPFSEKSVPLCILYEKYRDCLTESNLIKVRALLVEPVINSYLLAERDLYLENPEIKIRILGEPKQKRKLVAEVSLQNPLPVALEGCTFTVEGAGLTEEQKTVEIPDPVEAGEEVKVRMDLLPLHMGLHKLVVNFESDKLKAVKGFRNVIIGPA
As to the kind of experiment: Transglutaminase assay (DCC-assay): incorporation of dansylcadaverine into dimethylcasein. The series is classed as biochemical. The conditions noted are these: recombinant human TG2 10 nM; dansylcadaverine incorporation into dimethylcasein; read-out: IC50 TG2. Put shortly: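 Recombinant human TG2 (10 nM final) incorporates dansylcadaverine into N,N-dimethylcasein. Reaction mix: 50 mM Tris-HCl, 10 mM CaCl2, 10 mM glutathione, 2.5% glycerol, 16.7 µM dansylcadaverine, 4 µM dimethylcasein, 200 mM NaCl, pH 8.0. Fluorescence (ex 330/em 500 nm) was followed 30 min at 37 °C; the 20–30 min slope, expressed as % of 2% DMSO control, gave IC50.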

A short description of series [3]: Caco-2 permeability assay (CacoReady kit). The conditions noted are these: human, Caco-2, Caco-2 barrier, CacoReady kit; above 1×10^−6 cm/s classified as permeable. The series is classed as in vitro ADME. The method, boiled down:
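Apparent permeability coefficients (Papp) were measured across Caco-2 cell barriers using a ready-to-use kit run per the supplier's protocol. Values serve as a predictor of oral/intestinal bioavailability.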

In turn, `CNC(=O)C(=O)CC[C@H](NC(=O)c1oc2ccccc2c1C)C(=O)Nc1cccn(CC(=O)NC2CC3CCC2CC3)c1=O` (stereo partly drawn) [II-98, (2S)-N1-(1-(2-(bicyclo[2.2.2]octan-2-ylamino)-2-oxoethyl)-2-oxo-1,2-dihydropyridin-3-yl)-N6-methyl-2-(3-methylbenzofuran-2-carboxamido)-5-oxohexanediamide] showed a logD in series [1] of 1 to 3. In addition, the half-inhibitory concentration (IC50) in series [2] was 40 to 400 nM. In series [3], the Papp fell in the range of 1 to 10 ×10⁻⁶ cm/s.
In the case of `CNC(=O)C(=O)CC[C@H](NC(=O)c1oc2ccccc2c1C)C(=O)Nc1cccn(CC(=O)N[C@@H]2C[C@H]3CC[C@]2(C)C3(C)C)c1=O` [II-99, (S)-N1-methyl-5-(3-methylbenzofuran-2-carboxamido)-2-oxo-N6-(2-oxo-1-(2-oxo-2-((1R,2R,4R)-1,7,7-trimethylbicyclo[2.2.1]heptan-2-ylamino)ethyl)-1,2-dihydropyridin-3-yl)hexanediamide], in series [1], the pH-dependent lipophilicity (logD) was in the range of 3 to 5. Further, the half-maximal inhibitory concentration (IC50) in series [2] was in the range of 40 to 400 nM. Besides, the apparent permeability coefficient (Papp) in series [3] fell in the range of 1 to 10 ×10⁻⁶ cm/s.
Take `CNC(=O)C(=O)CC[C@H](NC(=O)c1oc2ccccc2c1C)C(=O)Nc1cccn(CC(=O)N[C@@H]2C[C@@H]3C[C@H]([C@H]2C)C3(C)C)c1=O` [II-100, (S)-N1-methyl-5-(3-methylbenzofuran-2-carboxamido)-2-oxo-N6-(2-oxo-1-(2-oxo-2-((1R,2R,3R,5S)-2,6,6-trimethylbicyclo[3.1.1]heptan-3-ylamino)ethyl)-1,2-dihydropyridin-3-yl)hexanediamide]: in series [1], the log distribution coefficient (logD) was in the range of 3 to 5. The IC50 in series [2] lay in the range of 40 to 400 nM. In addition, in series [3], the Papp lay in the range of 1 to 10 ×10⁻⁶ cm/s.
The matching figures for `CNC(=O)C(=O)CC[C@H](NC(=O)c1oc2ccccc2c1C)C(=O)Nc1cccn(CC(=O)N[C@H]2C[C@H]3C[C@@H]([C@@H]2C)C3(C)C)c1=O` [II-101, (S)-N1-methyl-5-(3-methylbenzofuran-2-carboxamido)-2-oxo-N6-(2-oxo-1-(2-oxo-2-((1S,2S,3S,5R)-2,6,6-trimethylbicyclo[3.1.1]heptan-3-ylamino)ethyl)-1,2-dihydropyridin-3-yl)hexanediamide]: 3 to 5, 40 to 400 nM and 1 to 10 ×10⁻⁶ cm/s.
With `CNC(=O)C(=O)CC[C@H](NC(=O)c1oc2ccccc2c1C)C(=O)Nc1cccn(CC(=O)NC23CCCC4CC(CCC42)C3)c1=O` (stereo partly drawn) [II-103, (S)-N1-(1-(2-(4-homoisotwistane-3-amino)-2-oxoethyl)-2-oxo-1,2-dihydropyridin-3-yl)-N6-methyl-2-(3-methylbenzofuran-2-carboxamido)-5-oxohexanediamide], the pH-dependent lipophilicity (logD) in series [1] is 1 to 3. In addition, the IC50 in series [2] is 40 to 400 nM. In addition, the Papp in series [3] is 1 to 10 ×10⁻⁶ cm/s.
With `CNC(=O)C(=O)CC[C@H](NC(=O)c1oc2ccccc2c1C)C(=O)Nc1cccn(CC23CC4CC(CC(C4)C2)C3)c1=O` [II-107, (S)-N1-(1-(1-adamantylmethyl)-2-oxo-1,2-dihydropyridin-3-yl)-N6-methyl-2-(3-methylbenzofuran-2-carboxamido)-5-oxohexanediamide], in series [1], the log distribution coefficient (logD) was in the range of 3 to 5. Moreover, the IC50 in series [2] was in the range of 40 to 400 nM. Besides, the apparent permeability (Papp) in series [3] fell in the range of 1 to 10 ×10⁻⁶ cm/s.
For `CNC(=O)C(=O)CC[C@H](NC(=O)c1oc2ccccc2c1C)C(=O)Nc1cccn(CC23CC4CC(CC(O)(C4)C2)C3)c1=O` [II-108, (2S)-N1-(1-((3-hydroxy-1-adamantyl)methyl)-2-oxo-1,2-dihydropyridin-3-yl)-N6-methyl-2-(3-methylbenzofuran-2-carboxamido)-5-oxohexanediamide], in series [1], the logD was in the range of 1 to 3. For the same compound, the IC50 in series [2] was 40 to 400 nM. Moreover, in series [3], the Papp is under 1 ×10⁻⁶ cm/s.
On the same counts, the results for `CNC(=O)C(=O)CC[C@H](NC(=O)c1oc2ccccc2c1C)C(=O)Nc1cccn(CC23CC4CC(CC(Br)(C4)C2)C3)c1=O` [II-109, (2S)-N1-(1-((3-bromo-1-adamantyl)methyl)-2-oxo-1,2-dihydropyridin-3-yl)-N6-methyl-2-(3-methylbenzofuran-2-carboxamido)-5-oxohexanediamide] are 3 to 5, 40 to 400 nM and 1 to 10 ×10⁻⁶ cm/s.
`CNC(=O)C(=O)CC[C@H](NC(=O)c1oc2ccccc2c1C)C(=O)Nc1cccn(CC2C3CC4CC(C3)CC2C4)c1=O` (stereo partly drawn) [II-110, (S)-N1-(1-(2-adamantylmethyl)-2-oxo-1,2-dihydropyridin-3-yl)-N6-methyl-2-(3-methylbenzofuran-2-carboxamido)-5-oxohexanediamide]: in series [1], the pH-dependent lipophilicity (logD) lay in the range of 3 to 5. Besides, the 50% inhibitory concentration (IC50) in series [2] lay within 40 to 400 nM. In addition, the Papp in series [3] fell in the range of 1 to 10 ×10⁻⁶ cm/s.
In series [1], `CNC(=O)C(=O)CC[C@H](NC(=O)c1cccnc1)C(=O)Nc1cccn(CC(=O)NC2C3CC4CC(C3)CC2C4)c1=O` (stereo partly drawn) [II-111, (S)-N1-(1-(2-(2-adamantylamino)-2-oxoethyl)-2-oxo-1,2-dihydropyridin-3-yl)-N6-methyl-2-(nicotinamido)-5-oxohexanediamide] registered a pH-dependent lipophilicity (logD) of 1 to 3. Also, the IC50 in series [2] was under 40 nM. In addition, the Papp in series [3] is under 1 ×10⁻⁶ cm/s.
The compound `CNC(=O)C(=O)CC[C@H](NC(=O)c1ccncc1)C(=O)Nc1cccn(CC(=O)NC2C3CC4CC(C3)CC2C4)c1=O` (stereo partly drawn) [II-112, (S)-2-(isonicotinamido)-N1-(1-(2-(2-adamantylamino)-2-oxoethyl)-2-oxo-1,2-dihydropyridin-3-yl)-N6-methyl-5-oxohexanediamide] came in with a logD in series [1] of 1 to 3. The half-inhibitory concentration (IC50) in series [2] was under 40 nM. In series [3], this compound displayed a Papp of under 1 ×10⁻⁶ cm/s.
On the same counts, the results for `CNC(=O)C(=O)CC[C@H](NC(=O)c1ccnnc1)C(=O)Nc1cccn(CC(=O)NC2C3CC4CC(C3)CC2C4)c1=O` (stereo partly drawn) [II-113, (S)-N1-(1-(2-(2-adamantylamino)-2-oxoethyl)-2-oxo-1,2-dihydropyridin-3-yl)-N6-methyl-5-oxo-2-(pyridazine-4-carboxamido)hexanediamide] are under 1, 40 to 400 nM and under 1 ×10⁻⁶ cm/s.
On to `CNC(=O)C(=O)CC[C@H](NC(=O)c1cccnn1)C(=O)Nc1cccn(CC(=O)NC2C3CC4CC(C3)CC2C4)c1=O` (stereo partly drawn) [II-114, (S)-N1-(1-(2-(2-adamantylamino)-2-oxoethyl)-2-oxo-1,2-dihydropyridin-3-yl)-N6-methyl-5-oxo-2-(pyridazine-3-carboxamido)hexanediamide], for which the pH-dependent lipophilicity (logD) in series [1] is under 1. The IC50 in series [2] was 40 to 400 nM. For the same compound, in series [3], the Papp is under 1 ×10⁻⁶ cm/s.
The matching figures for `Cc1c(C(=O)N[C@@H](CCC(=O)C(=O)NC2CC2)C(=O)Nc2cccn(CC(=O)NC3C4CC5CC(C4)CC3C5)c2=O)oc2ccccc12` (stereo partly drawn) [II-115, (S)-N1-cyclopropyl-N6-(1-(2-(2-adamantylamino)-2-oxoethyl)-2-oxo-1,2-dihydropyridin-3-yl)-5-(3-methylbenzofuran-2-carboxamido)-2-oxohexanediamide]: 3 to 5, 40 to 400 nM and 1 to 10 ×10⁻⁶ cm/s.
The matching figures for `CCCCCNC(=O)C(=O)CC[C@H](NC(=O)c1oc2ccccc2c1C)C(=O)Nc1cccn(CC(=O)NC2C3CC4CC(C3)CC2C4)c1=O` (stereo partly drawn) [II-116, (S)-N1-(1-(2-(2-adamantylamino)-2-oxoethyl)-2-oxo-1,2-dihydropyridin-3-yl)-2-(3-methylbenzofuran-2-carboxamido)-5-oxo-N6-pentylhexanediamide]: 3 to 5, 40 to 400 nM and 1 to 10 ×10⁻⁶ cm/s.
Regarding `C=CCNC(=O)C(=O)CC[C@H](NC(=O)c1oc2ccccc2c1C)C(=O)Nc1cccn(CC(=O)NC2C3CC4CC(C3)CC2C4)c1=O` (stereo partly drawn) [II-117, (S)-N1-allyl-N6-(1-(2-(2-adamantylamino)-2-oxoethyl)-2-oxo-1,2-dihydropyridin-3-yl)-5-(3-methylbenzofuran-2-carboxamido)-2-oxohexanediamide], in series [1], the pH-dependent lipophilicity (logD) was 3 to 5. Moreover, in series [2], the 50% inhibitory concentration (IC50) is 40 to 400 nM. This compound also registered a Papp in series [3] of 1 to 10 ×10⁻⁶ cm/s.
The matching figures for `Cc1c(C(=O)N[C@@H](CCC(=O)C(N)=O)C(=O)Nc2cccn(CC(=O)NC3C4CC5CC(C4)CC3C5)c2=O)oc2ccccc12` (stereo partly drawn) [II-118, (S)-N1-(1-(2-(2-adamantylamino)-2-oxoethyl)-2-oxo-1,2-dihydropyridin-3-yl)-2-(3-methylbenzofuran-2-carboxamido)-5-oxohexanediamide]: 1 to 3, under 40 nM and 1 to 10 ×10⁻⁶ cm/s.
